The values below come from patent US7442706B2, “Methods for treating sarcopenia with a growth hormone secretagogue” (priority 2006, dated 2008).

One data set deals with IGF-I. The experiment in a line: Serum total IGF-I levels (Immulite 2000) in the 2-year placebo-controlled trial. Conditions: for IGF-I levels after withdrawal of MK-677 or switch to placebo: after crossover to placebo in year 2 or 3 and 6 months after withdrawal. The format is in vivo, human. The procedure:
Sixty-five healthy men and women (±HRT) ages 60-81 years were enrolled in a 2-year study of MK-677 (25 mg p.o. daily) or placebo. In addition to GH and IGF-I, the primary endpoints were fat-free mass (FFM), by 4-compartment model and DXA, and abdominal visceral fat (AVF) by CT. Secondary endpoints included isokinetic strength, function and quality of life (QoL); all endpoints were assessed at baseline and every 6 months, with frequent monitoring for adverse effects. This NIH-funded study was approved by the General Clinical Research Center (GCRC) and the University of Virginia Institutional Review Boards. All subjects gave written informed consent. A two-year, double-blind, placebo-controlled modified crossover trial of once-daily administration of an oral GH secretogogue (MK-677, 25 mg) to healthy older adults was performed. During the first year, subjects were randomized to MK-677 or placebo treatment. In each of 3 groups (23 men, 25 women on hormone replacement therapy (HRT) and 17 women not on HRT), ⅔ received MK-677 and ⅓ received placebo. At the end of year 1, the subjects who received placebo were switched to MK-677 treatment (N= 2/0 in year 2); subjects who received MK-677 for the first year were randomized to continue MK-677 (N=20) or to placebo (N=19). Assays and Insulin Sensitivity. Plasma glucose was measured on a Beckman analyzer and insulin and total IGF-I were measured in the GCRC Core Laboratory on an Immulite 2000 (Diagnostic Products Corporation, Los Angeles, Calif.). Additional safety laboratory tests were performed by standard methods in the UVA Clinical Laboratories. Fasting insulin and glucose were used to estimate insulin sensitivity by the Quicki method (4). The primary outcome data for the 6- and 12-month changes in FFM and AVF as well as for IGF-I and GH were analyzed via repeated measures ANCOVA. The FFM and AVF data were analyzed on the same scale as they were measured, while the IGF-I and GH data were transformed to the natural logarithmic scale before conducting the statistical analyses so that the variance and normality assumptions of the linear model were not violated. Since the FFM and AVF data were analyzed on the same scale as initially measured, the 6- and 12-month changes are reported as a difference between arithmetic means; changes in IGF-I and GH data analyzed on the natural algorithmic scale are reported as a ratio of geometric means.

The nature of data set [1]: Body water (TBW by deuterium dilution, ECW by bromide dilution, ICW by difference). The format is in vivo, human. Conditions: 12 months; expressed per kg FFM. The procedure: Body Water. Total body water (TBW) was measured using the deuterium oxide (D2O) dilution technique ((8) and extracellular water (ECW) by bromide dilution (10). Intracellular water (ICW) was assessed as the difference between TBW and ECW. To determine the relative relationships of total-, extra- and intra-cellular water, each component (in kg) was expressed per kg of FFM at each time point.

Data set [2] can be described thus: Isokinetic muscle strength (Cybex II), knee and shoulder flexion and extension. The format is in vivo, human. Conditions: 12 months. The procedure:
Isokinetic Muscle Strength. Concentric force during flexion and extension of the knee and shoulder were determined using an isokinetic dynamometer Cybex II (CSM, Inc., Boston, Mass.). (11) Six repetitions of maximal effort over 90 degrees at 60 degrees/second were performed with the mean of the last 5 repetitions computed by proprietary software. Total work (Newton metres) was calculated by multiplying the mean per repetition by 5. Correction for Height and Gender. All strength and function measurements were analyzed per kg of skeletal muscle (ASM). Baseline arm ASM and leg ASM were used for shoulder and knee strength, respectively; baseline TASM (sum of arms and legs) was used for the function tests.

The nature of data set [3]: Function tests and quality of life questionnaires. The class given is in vivo, human. Conditions: year 1. On the procedure:
Quality of Life Assessments. Subjects completed 4 questionnaires to assess quality of life and general well-being: the 20-item Short Form Health Survey (SF-20); Beck Depression Inventory (BDI); Pittsburgh Sleep Quality Index (PSQI); and the Body Cathexis Scale (BCS).
Function. Function tests included walking 30 meters as quickly as possible, walking as far as possible in 6 minutes, descending and ascending 4 flights of stairs and rising and sitting 5 times from an armless chair with an 18″ seat height.
Correction for Height and Gender. All strength and function measurements were analyzed per kg of skeletal muscle (ASM). Baseline arm ASM and leg ASM were used for shoulder and knee strength, respectively; baseline TASM (sum of arms and legs) was used for the function tests.
With regard to the quality of life data, a Factor Analysis of the different scales of the questionnaires was performed to create an overall well-being factor (16). Initially, study subjects were used as their own internal controls and assessed if there was change over time in overall well being. Using the hierarchical linear modeling (HLM), a growth curve analysis was conducted, testing within-person linear and curvilinear change in overall well being over time.

Data set [4] in a line: Monitoring for adverse effects, PSA, mammograms, pap smears, routine laboratory tests. The class given is in vivo, human. The procedure: Healthy men and women 60 years and older were eligible to participate. A schematic of the study design and details of subject inclusion/exclusion criteria, screening, enrollment, and attrition are shown in FIG. 1. Volunteers were carefully screened by medical history and physical examination to rule out underlying disease and extensive laboratory testing was performed before and frequently throughout the study. Participants were asked to maintain their typical diet and exercise throughout the study and to report any illnesses, medical procedures or side effects. Annual mammograms and pap smears were performed in women and levels of prostate-specific antigen (PSA) were monitored in men.
In each of the 2 years, volunteers were seen monthly the first 3 months and every 3 months thereafter for a physical examination, documentation of medications and vital signs, routine laboratory tests and detailed questioning about possible side effects. Fasting blood glucose and hemoglobin Alc (HBAlc) were monitored for possible changes with MK-677 treatment, since increased blood glucose had been observed in previous studies (11;15).

The subject of a further data set is quadriceps muscle. Conditions: canines during remobilization; cited from earlier work.
The conditions of data set [5]: orally active; cited from earlier work.

Entries after “also recorded” stand apart in the source; their conditions may differ.

Consider `CC(C)(N)C(=O)N[C@H](COCc1ccccc1)C(=O)N1CCC2(CC1)CN(S(C)(=O)=O)c1ccccc12.CS(=O)(=O)O` [MK-677, N-[1(R)-[(1,2-dihydro-1-methanesulfonylspiro[3H-indole-3,4′-piperidin]-1′-yl)carbonyl]-2-(phenylmethyloxy)ethyl]-2-amino-2-methylpropanamide methanesulfonate], for which the “IGF-I levels after withdrawal of MK-677 or switch to placebo” value in the data set with IGF-I (listed as Mk-677, methanesulfonate) is listed as “fell to baseline levels”. In the data set with IGF-I (methanesulfonate), the “IGF-I levels after withdrawal of MK-677 or switch to placebo” value was “returned to pre-treatment levels”. In the data set on IGF-I (at 6 and 12 months, 25 mg p.o. daily, N=43), the “fold increase in IGF-I levels” value is given as 1.5 fold. The “IGF-I levels relative to normal range for young adults aged 21-25 (116-358 μg/L)” value in the data set with IGF-I (first year, 25 mg p.o. daily, methanesulfonate) was “levels in the young adult normal range; also recorded: increased into the normal range for young adults”. Further, in data set [1], the “changes in TBW, ECW or ICW vs. placebo” value is listed as “no significant changes”. Further, in data set [2], the “shoulder flexion total work vs. placebo” value is recorded as “trend for prevention of this decline” and the “total work in knee extension or flexion or in shoulder extension, between groups” value was “no change”. Further, in data set [3], the “function or QoL” value is recorded as “did not result in changes”. Further, in data set [4] (daily treatment), the serious side effects result is recorded as “without serious side effects”. In addition, the “mammograms, pap smears, routine laboratory tests” value in data set [4] (during the 2 years of the study) is given as “no changes”. Besides, the “time for appetite to return to normal” value in data set [4] (in about one-half the subjects) is on record as at most 3 months. For the same molecule, the PSA levels entry in data set [4] (men) is on record as “declined significantly”. The “transient muscle pain, subjects reporting” value in data set [4] (placebo 2/22) was 14/43. In addition, the “mild, transient edema, subjects reporting” value in data set [4] (placebo 6/22) is on record as 19/43. In data set [4] (placebo 8/22), the “increase in appetite, subjects reporting” value is on record as 29/43. In data set [4] (placebo 17/22), the “Joint pain, subjects reporting” value is recorded as 25/43. In the data set on quadriceps muscle, the “serum insulin-like growth factor-1 levels” value is “elevated levels of serum insulin-like growth factor-1”; the “size and strength of the quadriceps muscle” value was “increased the size and strength of the quadriceps muscle”. Moreover, the diet-induced catabolism result in data set [5] is recorded as “reverses diet-induced catabolism”.
